Measurements published in patent US7169763B2, “Cytochrome P450 3A inhibitors and enhancers” (priority 2002, dated 2007).

Tested on: CYP3A
Experiment: Determination of CYP3A activity by erythromycin demethylation method (rat liver homogenate/microsomes)
Set-up: CYP3A Activity (percentage of control): dose or concentration left out as unconfirmed
Details: for inhibitory effects on rat liver CYP3A (in words): summary of Table 1; for enhancing effects on rat hepatic CYP3A (in words): summary of Table 2
[1] = inhibitor concentration 0.004, Table 1 Inhibition
[2] = inhibitor concentration 0.04, Table 1 Inhibition
[3] = inhibitor concentration 0.4, Table 1 Inhibition
[4] = inhibitor concentration 0.1, Table 1 Inhibition
[5] = inhibitor concentration 4.3, Table 1 Inhibition

| Molecule | CYP3A Activity (percentage of control) [1] | CYP3A Activity (percentage of control) [2] | CYP3A Activity (percentage of control) [3] | further results |
| --- | --- | --- | --- | --- |
| COc1ccc([C@@H]2CC(=O)c3c(O)cc(O[C@@H]4O[C@H](CO[C@@H]5O[C@@H](C)[C@H](O)[C@@H](O)[C@H]5O)[C@@H](O)[C@H](O)[C@H]4O)cc3O2)cc1O [hesperidin] | 24.05 ± 5.06 percentage of control | 103.79 ± 6.37 percentage of control | 80.75 ± 4.18 percentage of control | inhibitory effects on rat liver CYP3A (in words): particularly effective |
| C[C@@H]1O[C@@H](Oc2c(-c3ccc(O)c(O)c3)oc3cc(O)cc(O)c3c2=O)[C@H](O)[C@H](O)[C@H]1O [quercitrin] | 55.06 ± 5.34 percentage of control | 73.56 ± 5.96 percentage of control | 98.67 ± 7.51 percentage of control | – |
| CC1(C)[C@@H](O[C@H]2O[C@H](C(=O)O)[C@@H](O)[C@H](O)[C@H]2O[C@@H]2O[C@H](C(=O)O)[C@@H](O)[C@H](O)[C@H]2O)CC[C@]2(C)[C@H]3C(=O)C=C4[C@@H]5C[C@@](C)(C(=O)O)CC[C@]5(C)CC[C@@]4(C)[C@]3(C)CC[C@@H]12 [Glycyrrhizin] | – | – | – | CYP3A Activity (percentage of control) (inhibitor concentration 0.269, Table 1 Inhibition): 42.96 ± 3.75 percentage of control |
| CC(=O)OCCCc1ccccc1 [3-phenylpropyl acetate] | 60.33 ± 2.18 percentage of control | 70.50 ± 0.59 percentage of control | 53.89 ± 4.43 percentage of control | – |
| C[C@@H]1O[C@@H](O[C@H]2[C@H](Oc3cc(O)c4c(c3)O[C@H](c3ccc(O)cc3)CC4=O)O[C@H](CO)[C@@H](O)[C@@H]2O)[C@H](O)[C@H](O)[C@H]1O [Narigin] | – | – | – | CYP3A Activity (percentage of control) (inhibitor concentration 21.67, Table 1 Inhibition): 56.22 ± 22.87 percentage of control; inhibitory effects on rat liver CYP3A (in words): particularly effective |
| CC1=CCC(C(C)(C)O)CC1 (stereo not drawn) [α-terpineol] | – | – | – | CYP3A Activity (percentage of control) (inhibitor concentration 501.93, Table 1 Inhibition): 9.29 ± 1.07 percentage of control |
| Luteolin-7-glycoside | – | 98.71 ± 19.74 percentage of control | – | CYP3A Activity (percentage of control) (enhancer concentration 0.004, Table 2 Enhancement): 122.89 ± 40.06 percentage of control; CYP3A Activity (percentage of control) (enhancer concentration 0.1, Table 2 Enhancement): 113.09 ± 5.99 percentage of control; CYP3A Activity (percentage of control) (inhibitor concentration 0.0078, Table 1 Inhibition): 46.68 ± 0.17 percentage of control; enhancing effects on rat hepatic CYP3A (in words): particularly effective |
| Oc1cc(O)c2c(c1)O[C@H](c1ccc(O)c(O)c1)[C@@H](O)C2 (relative stereo) [(+)-catechin, 2R-trans-2-(3,4-dihydroxyphenyl)-3,4-dihydro-2H-1-benopyran-3,5,7-triol] | 59.31 ± 2.94 percentage of control | 62.70 ± 8.53 percentage of control | 45.42 ± 6.13 percentage of control | inhibitory effects on rat liver CYP3A (in words): particularly effective |
| O=C(O)c1cc(O)c(O)c(O)c1 [Gallic acid] | – | – | – | CYP3A Activity (percentage of control) [5]: 43.86 ± 4.45 percentage of control; CYP3A Activity (percentage of control) (inhibitor concentration 24.66, Table 1 Inhibition): 43.65 ± 0.57 percentage of control; CYP3A Activity (percentage of control) (inhibitor concentration 77.07, Table 1 Inhibition): 44.09 ± 4.39 percentage of control; inhibitory effects on rat liver CYP3A (in words): particularly effective |
| O=c1cc(-c2ccccc2)oc2c1ccc1ccccc12 [α-Naphthoflavone] | – | – | – | CYP3A Activity (percentage of control) (inhibitor concentration 1.24, Table 1 Inhibition): 43.52 ± 2.93 percentage of control |
| C=CC(=C)CCC=C(C)C [β-myrcene] | – | – | – | CYP3A Activity (percentage of control) [5]: 55.95 ± 4.45 percentage of control; inhibitory effects on rat liver CYP3A (in words): particularly effective |
| O=c1cc(-c2ccccc2)oc2ccc3ccccc3c12 [β-Naphthoflavone] | – | – | – | CYP3A Activity (percentage of control) (inhibitor concentration 0.87, Table 1 Inhibition): 42.41 ± 4.08 percentage of control |
| C=C[C@H]1[C@H](O[C@@H]2O[C@H](CO)[C@@H](O)[C@H](O)[C@H]2O)OC=C2C(=O)OCC[C@]21O [swertiamarin] | 79.71 ± 1.76 percentage of control | 67.88 ± 0.49 percentage of control | 65.63 ± 1.29 percentage of control | – |
| CC(C)[C@@H](C)/C=C/[C@@H](C)[C@H]1CC[C@H]2C3=CC=C4C[C@@H](O)CC[C@]4(C)[C@H]3CC[C@]12C [ergosterol] | 64.59 ± 3.34 percentage of control | 63.71 ± 11.57 percentage of control | 59.57 ± 5.41 percentage of control | – |

Continued, in another order:

| CYP3A Activity (percentage of control) [1] | CYP3A Activity (percentage of control) [2] | CYP3A Activity (percentage of control) [3] | Molecule | further results |
| --- | --- | --- | --- | --- |
| 81.63 ± 5.21 percentage of control | 62.37 ± 12.33 percentage of control | 60.54 ± 15.51 percentage of control | O=C1C[C@@H](c2ccc(O)cc2)Oc2cc(O)cc(O)c21 [Nariagenin] | CYP3A Activity (percentage of control) (inhibitor concentration 1.55, Table 1 Inhibition): 47.07 ± 9.87 percentage of control |
| 88.22 ± 0.00 percentage of control | 94.10 ± 10.37 percentage of control | 106.51 ± 8.16 percentage of control | O=c1cc(-c2ccc(O)c(O)c2)oc2cc(O)cc(O)c12 [Luteolin] | CYP3A Activity (percentage of control) (inhibitor concentration 1.56, Table 1 Inhibition): 36.32 ± 1.26 percentage of control |
| 75.76 ± 7.97 percentage of control | 77.52 ± 15.98 percentage of control | 91.62 ± 0.76 percentage of control | O=c1c(O)c(-c2ccc(O)c(O)c2)oc2cc(O)cc(O)c12 [quercetin] | – |
| 84.66 ± 3.04 percentage of control | 81.59 ± 4.76 percentage of control | – | O=c1cc(-c2ccccc2)oc2cc(O)c(O)c(O)c12 [baicalein] | CYP3A Activity (percentage of control) [4]: 64.47 ± 4.75 percentage of control |
| 64.62 ± 1.53 percentage of control | 66.83 ± 5.03 percentage of control | – | O=c1c(O[C@@H]2O[C@H](CO)[C@@H](O)[C@H](O)[C@H]2O)c(-c2ccc(O)c(O)c2)oc2cc(O)cc(O)c12 [isoquercitrin] | CYP3A Activity (percentage of control) (inhibitor concentration 0.2, Table 1 Inhibition): 51.46 ± 6.68 percentage of control |
| 89.00 ± 12.02 percentage of control | 84.87 ± 6.93 percentage of control | 90.00 ± 4.20 percentage of control | O=c1ccc2ccc(O)cc2o1 [umbelliferone] | CYP3A Activity (percentage of control) (inhibitor concentration 1.84, Table 1 Inhibition): 76.22 ± 2.73 percentage of control; CYP3A Activity (percentage of control) (inhibitor concentration 5.43, Table 1 Inhibition): 98.85 ± 14.19 percentage of control; CYP3A Activity (percentage of control) (inhibitor concentration 16.96, Table 1 Inhibition): 90.33 ± 1.63 percentage of control |
| 52.96 ± 1.15 percentage of control | 54.64 ± 5.16 percentage of control | – | O=c1cc(-c2ccc(O)cc2)oc2cc(O)cc(O)c12 [apigenin] | CYP3A Activity (percentage of control) (enhancer concentration 0.22, Table 2 Enhancement): 108.62 ± 1.28 percentage of control; CYP3A Activity (percentage of control) [4]: 59.94 ± 2.50 percentage of control; enhancing effects on rat hepatic CYP3A (in words): particularly effective |
| 73.03 ± 2.30 percentage of control | 76.57 ± 3.83 percentage of control | 80.11 ± 8.11 percentage of control | O=c1c(O)c(-c2ccc(O)cc2)oc2cc(O)cc(O)c12 [kaempferol] | CYP3A Activity (percentage of control) (enhancer concentration 1.46, Table 2 Enhancement): 111.35 ± 27.88 percentage of control |
| 84.66 ± 3.04 percentage of control | 75.89 ± 3.31 percentage of control | 48.25 ± 4.62 percentage of control | COc1ccc([C@@H]2CC(=O)c3c(O)cc(O)cc3O2)cc1O [hesperetin] | inhibitory effects on rat liver CYP3A (in words): particularly effective |
